According to paper PMC8152588 (RSC Medicinal Chemistry, 2021):
Read-outs that look alike come from different tables or passages of the source.

How the values were obtained:
MOLM-13 human AML cells = settings: ref Viktorsson et al.[26], cited from earlier work
[1] = tested on: NRK (normal rat kidney epithelial) cells; experiment: Cytotoxicity; assay type: cell-based; settings: for Selectivity towards leukemic cells compared with NRK cells (factor): MOLM-13 vs NRK; for EC50: ±SEM
Solubility observation = assay type: physicochemical; settings: cell media / DMSO
[2] = read-out: EC50 (μM) MOLM-13 2% O2, 2% O2, ±SEM
[3] = read-out: EC50 (μM) MOLM-13 19% O2, 19% O2, ±SEM
[4] = read-out: EC50 (μM) NRK 2% O2, 2% O2, 24 h exposure
[5] = read-out: EC50 (μM) NRK 19% O2, 19% O2, 24 h exposure

SMILES	EC50 (MOLM-13 human AML cells; [2])	EC50 (MOLM-13 human AML cells; [3])	EC50 [1, 4]	also measured
CCOC(=O)COc1cccc2c1[n+]([O-])c1cccc(O)c1[n+]2[O-] [Compound 7, 1-hydroxy-6-(2-ethoxy-2-oxoethoxy) phenazine 5,10-dioxide]	0.49 ± 0.12 µM	0.57 ± 0.06 µM		
CN1CCN(C(=O)Oc2cccc3c2[n+]([O-])c2cc(Cl)c(Cl)cc2[n+]3[O-])CC1 [Compound 54]				Selectivity towards leukemic cells compared with NRK cells (factor) ([1]; 19% O2): more than 30
Cc1cc2c(cc1C)[n+]([O-])c1c(O)cccc1[n+]2[O-] [Compound 44, 7,8-Dimethyl-1-hydroxyphenazine 5,10-dioxide]			> 50 µM	
[O-][n+]1c2cccc(O)c2[n+]([O-])c2cccc(O)c21 [Compound 3, 1,6-dihydroxyphenazine 5,10-dioxide]	0.79 ± 0.1 µM	2 ± 0.07 µM	> 50 µM	
[O-][n+]1c2cc3ccccc3cc2[n+]([O-])c2c(O)cccc21 [Compound 45]				Solubility (Solubility observation): practically insoluble
CCOC(=O)COc1cccc2c1[n+]([O-])c1cc(C)c(C)cc1[n+]2[O-] [Compound 48]			> 100 µM	EC50 [1, 5]: 140 ± 2 µM
CCOC(=O)Oc1cccc2c1[n+]([O-])c1cccc(OC(=O)OCC)c1[n+]2[O-] [Compound 14]			> 25 µM	
[O-][n+]1c2ccccc2[n+]([O-])c2c(O)cccc21 [Compound 21, 1-Hydroxyphenazine 5,10-dioxide]			> 100 µM	
Nc1n[n+]([O-])c2ccccc2[n+]1[O-] [Compound 10, 3-amino-1,2,4-benzotriazine 1,4-dioxide]	22 ± 2 µM	95 ± 8 µM		EC50 [1, 5]: > 100 µM
COc1cccc2c1[n+]([O-])c1cccc(O)c1[n+]2[O-] [Compound 4, 1-hydroxy-6-methoxyphenazine 5,10-dioxide]	0.77 ± 0.13 µM	1.4 ± 0.3 µM		Selectivity towards leukemic cells compared with NRK cells (factor) ([1]; hypoxic conditions (2% O2)): around 100
